What is called Ki is a measure of affinity in units of concentration, obtained from inhibition or displacement.

Consider one compound from patent publication EP0821957A2 (priority 1996, dated 1998).

One experiment has as its target m4 receptors (Homo sapiens, UniProt P08173). The class given is cell-based. Particulars: CHO m4 cells treated with pertussis toxin.
Experiment [1] concerns the target muscarinic cholinergic receptors. Description: ^3H-oxotremorine-M binding inhibition. Particulars: inhibition of binding of ^3H-oxotremorine-M; read-out: inhibition costant (Ki).

Structures are written as SMILES.

Chain of m4 receptors (P08173 whole entry): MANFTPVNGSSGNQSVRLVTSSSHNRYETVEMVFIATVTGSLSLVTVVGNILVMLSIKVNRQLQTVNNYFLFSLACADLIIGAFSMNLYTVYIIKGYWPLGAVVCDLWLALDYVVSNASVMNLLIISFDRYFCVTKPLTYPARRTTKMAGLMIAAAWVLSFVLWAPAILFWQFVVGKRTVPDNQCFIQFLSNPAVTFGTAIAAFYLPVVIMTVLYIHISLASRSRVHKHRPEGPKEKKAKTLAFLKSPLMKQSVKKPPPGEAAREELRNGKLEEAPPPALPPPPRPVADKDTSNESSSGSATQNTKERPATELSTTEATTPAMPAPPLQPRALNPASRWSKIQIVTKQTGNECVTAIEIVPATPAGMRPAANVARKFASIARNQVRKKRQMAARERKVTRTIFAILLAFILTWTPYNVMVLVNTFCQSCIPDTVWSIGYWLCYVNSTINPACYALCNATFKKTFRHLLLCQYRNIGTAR

As to `CCCCCCOc1nsnc1C1=CCCN(C)C1` [Xanomeline, 3-(4-hexyloxy-1,2,5-thiadiazol-3-yl)-1,2,5,6-tetrahydro-1-methylpyridine], the “formation of cAMP” value at m4 receptors is “efficaciously and potently stimulated the formation of cAMP”. Also, the Ki in experiment [1] was found to be 2 nM.
